Experimental data: publication PMC12422582, “A divergent cyclic nucleotide binding protein promotes Plasmodium ookinete infection of the mosquito” (PLOS Pathogens, 2025)

Columns and labels:
CNB3 of PbCBP-O (PbCNB3) = molecular target: T1, CNB3 of PbCBP-O (PbCNB3) (Plasmodium berghei, UniProt A0A509AL17); experiment: cGMP-agarose pull-down, anti-His western blot; assay type: binding; conditions: ligand immobilised through position […] as 8-AET-cGMP-Agarose (BioLog); E. coli lysate, Hepes pH […]°C, […] h
T1 construct: gene PBANKA_1025300; N-terminal 6xHis, pET28a, E. coli Rosetta DE3, soluble lysate

[1] = molecular target: T2, CBP-O(ΔN-term), GFP-tagged (Plasmodium berghei, UniProt A0A509AL17); experiment: cGMP-agarose pull-down from schizont lysate, anti-GFP western blot; assay type: biochemical; conditions: ligand immobilised as 8-AET-cGMP-Agarose; Hepes pH […]°C, […] h
T2 construct: gene PBANKA_1025300; endogenous locus edited: residues 1-1694 deleted, CNB1-4/X kept, GFP tag; P. berghei schizont lysate

## Nc1nc2c(ncn2[C@@H]2O[C@@H]3COP(=O)(O)O[C@H]3[C@H]2O)c(=O)[nH]1 [cGMP]
CNB3 of PbCBP-O (PbCNB3)
  cGMP-agarose pull-down, anti-His western blot: CNB3 showed affinity for both cAMP and cGMP (Fig 6C)
[1]
  cGMP-agarose pull-down from schizont lysate, anti-GFP western blot: the N-term mutant retained cyclic nucleotide binding activity (Fig 6D)
